# Key:
# [1] = test system: AR, mPXR, hPXR, ERα, CARβ, LXRα, PPARα, PPARβ, PPARδ, VDR and TRβ; experiment: Activation of other RXR heterodimers / nuclear receptors (transfection assay); format: cell-based
# Protocol: CV-1 African Green Monkey cells were grown in Dulbecco's Modified Eagle's medium supplemented with 10% resin-charcoal stripped fetal bovine serum (FBS), 50 U/ml penicillin G and 50 μg/ml streptomycin sulfate (DMEM-FBS) at 37° C. in 5% CO2. One day prior to transfection, cells were plated to 50-80% confluence using phenol red-free DMEM-FBS. Cells were transiently transfected by lipofection as described in Forman et al., 81 Cell 687 (1995). Liposomes (N-[1-(2,3-dioleoyloxy)propyl]-N,N,N-ammonium methyl sulfate, sold by Boehringer Mannheim under the name DOTAP) were formed according to the manufacturer's instructions. […]
# (§1) The harvested cells were assayed for the presence of luciferase activity. […] Luciferase activity was measured by reaction of the cell lysates with luciferin in a reaction buffer comprising: 20 mM tricine, 1.07 mM Mg(CO3)4-Mg(OH)2-5H2O, 2.67 mM MgSO4.7H2O, 0.1 mM EDTA, 0.5 mM Sodium luciferin, 0.15 mg/ml Coenzyme A, 5 mM DTT, and 0.5 mM adenosine triphosphate (ATP). Resulting chemiluminescence was measured in a luminometer. […]
# (§2) The transfected cells were then treated with the indicated ligands for 40 hours. Activity was measured using luciferase expression in the cotransfection assay described above. […] Thus, Gal-L-RAR or Gal-L-RXR fusions were transfected into CV-1 cells with a Gal 4 reporter (MH100×4) and the effect of different ligands was evaluated.
# Gal-L-RXR = target: T1, Gal-L-RXR (Homo sapiens, UniProt P19793); experiment: Gal-L-RXR fusion with Gal 4 reporter (MH100×4) in CV-1 cells; format: cell-based; conditions: 5 μM
# T1 construct: expressed in transfected cells; host or cells: CV-1
# T1 sequence (P19793 203-462): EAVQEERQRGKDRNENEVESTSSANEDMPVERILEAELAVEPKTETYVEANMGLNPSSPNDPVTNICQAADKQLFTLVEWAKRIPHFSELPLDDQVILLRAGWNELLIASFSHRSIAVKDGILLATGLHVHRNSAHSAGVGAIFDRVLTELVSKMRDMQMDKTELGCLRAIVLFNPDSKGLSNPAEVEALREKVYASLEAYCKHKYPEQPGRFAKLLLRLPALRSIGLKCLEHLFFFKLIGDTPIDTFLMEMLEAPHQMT
# Protocol: The nucleic acid regions encoding the following full-length proteins were cloned into a CMV expression vector.
# For GAL-L-RXR, the plasmid nucleic acids encoded amino acids Glu203 to Thr462 of human RXRα (SEQ ID NO: 4) fused to the GAL4 sequences. The junction between the carboxyl terminal section of GAL4 and the amino terminal portion of the RXR LBD had the following structure:
# CV-1 African Green Monkey cells were grown in Dulbecco's Modified Eagle's medium supplemented with 10% resin-charcoal stripped fetal bovine serum (FBS), 50 U/ml penicillin G and 50 μg/ml streptomycin sulfate (DMEM-FBS) at 37° C. in 5% CO2. […]
# as §1, §2
# BAR-RXRm heterodimers = target: T2, BAR-RXRm heterodimers (Rattus norvegicus, UniProt Q62735); experiment: Co-activator (GRIP1) recruitment gel shift assay, BAR-RXRm heterodimer; format: binding; conditions: for recruitment of co-activator GRIP1 (gel shift): 32P-labeled IBABP IR1 response element, range of doses
# T2 construct: nucleic acid regions encoding the following full-length proteins were cloned into a CMV expression vector; made in house; host or cells: receptors: in vitro translation; GST-GRIP1: E. coli
# T2 sequence (Q62735 1-469): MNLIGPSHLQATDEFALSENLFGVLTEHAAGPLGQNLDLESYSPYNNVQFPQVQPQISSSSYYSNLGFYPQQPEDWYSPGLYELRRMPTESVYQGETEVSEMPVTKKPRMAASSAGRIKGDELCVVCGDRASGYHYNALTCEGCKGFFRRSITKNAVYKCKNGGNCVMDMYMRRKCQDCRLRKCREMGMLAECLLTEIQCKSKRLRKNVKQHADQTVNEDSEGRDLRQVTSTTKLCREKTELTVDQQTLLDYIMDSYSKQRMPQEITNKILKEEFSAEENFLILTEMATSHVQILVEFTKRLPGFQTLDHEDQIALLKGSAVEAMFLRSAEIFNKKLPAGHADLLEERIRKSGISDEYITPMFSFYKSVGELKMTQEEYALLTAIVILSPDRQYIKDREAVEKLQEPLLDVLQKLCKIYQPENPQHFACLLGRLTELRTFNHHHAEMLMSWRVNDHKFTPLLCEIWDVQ
# T2 sequence (P19793 1-462 D322P partner): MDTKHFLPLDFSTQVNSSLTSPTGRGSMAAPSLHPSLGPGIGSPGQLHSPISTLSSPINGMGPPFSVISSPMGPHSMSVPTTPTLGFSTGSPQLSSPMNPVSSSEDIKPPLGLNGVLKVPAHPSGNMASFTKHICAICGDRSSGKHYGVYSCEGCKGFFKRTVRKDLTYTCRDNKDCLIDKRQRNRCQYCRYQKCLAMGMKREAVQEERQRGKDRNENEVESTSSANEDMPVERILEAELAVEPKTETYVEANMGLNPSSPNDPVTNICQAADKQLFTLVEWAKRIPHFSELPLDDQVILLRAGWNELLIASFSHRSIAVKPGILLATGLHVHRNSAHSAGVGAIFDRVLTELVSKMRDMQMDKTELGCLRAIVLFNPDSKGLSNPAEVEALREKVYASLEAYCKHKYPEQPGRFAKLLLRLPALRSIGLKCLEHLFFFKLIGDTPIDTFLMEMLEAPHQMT
# Source text: Coactivators, which bind agonist-activated nuclear receptors including, without limitation, RAR and RXR, function to assist the activated nuclear receptor exert its activity as a transcription factor. Characterized co-activators include CBP, p300, RIP140, SRC-1, ACTR, TIF2 (also called GRIP 1) and TIFI. In most cases coactivator will not bind the receptor in the absence of an agonist, moreover, receptor antagonists will often block coactivator binding, either directly or through the recruitment of a corepressor. Coactivator recruitment assays are therefore a valuable method for directly visualizing associative changes to a receptor caused by the addition of a prospective ligand.
# GRIP 1 was expressed as a fusion protein with glutathione-S-transferase, an enzyme which selectively binds glutathione and can thus be used as an affinity reagent. See e.g., U.S. Pat. No. 5,654,176. The GST-GRIP1 fusion protein was expressed in E. coli and purified on glutathione-Sepharose columns. In vitro translated BAR/FXR\RXR (0.6-1.2 μl each) and GST-GRIP 1 (5 μg) were incubated for 30 min at room temperature with 100,000 cpm of the E. coli DNA polymerase Klenow fragment-labeled probes in 10 mM Tris (pH 8.0), 50 mM KCl, 6% glycerol, 0.05% NP-40, 1 mM DTT, 12.5 ng/μl poly dI-dC, and the indicated ligands. Complexes were electrophoresed through 5% polyacrylamide gel in […] (45 mM Tris-base, 45 mM boric acid, 1 mM EDTA) at room temperature. […]
# To address the question of whether the two identified compounds are ligands for BAR, we used an in vitro co-activator recruitment assay. […] Because the association between co-activator and receptor results in the formation of a new higher molecular weight species, the ligand-dependent recruitment of co-activator can be detected in gel shift assays and is commonly used as an indicator for ligand binding. […]
Compound,effect on other RXR heterodimers containing nuclear receptors [1],activation of RXR (Gal-L-RXR),recruitment of co-activator GRIP1 (gel shift) (BAR-RXRm heterodimers),"competition (GRIP1 displacement) with BAR/RXRm heterodimer (BAR-RXRm heterodimers; AGN 29 as agonist, increasing AGN 34)"
"Cc1cc2c(cc1/C(=C/c1ccc(C(=O)O)cc1)[Si](C)(C)C)C(C)(C)CCC2(C)C [AGN 29, (Z)-4-[2-(3,5,5,8,8-Pentamethy1-5,6,7,8-tetrahydronaphthalen-2-yl)-2-(trimethylsilyl)vinyl]benzoic Acid]",no effect,retained some ability to activate RXR,shifted the majority of the complexes,–
"CCCC/C(=C\c1ccc(C(=O)O)cc1)c1ccc2c(c1)C(C)(C)CCC2(C)C [AGN 31, 4-[2-(5,5,8,8-Tetramethyl-5,6,7,8-tetrahydronaphthalen-2-yl)hex-1-enyl]benzoic Acid]",no effect,retained some ability to activate RXR,shifted the majority of the complexes,–
"CCCCCCOc1c(\C(C)=C/C=C/C(C)=C/C(=O)O)cc(C(C)C)cc1C(C)C [AGN 34, (2E, 4E, 6Z)-7-(2-Hexyloxy-3,5-diisopropylphenyl)-3-methylocta-2,4,6-trienoic Acid]",–,–,–,same results
